The source of these data is US20070191493A1, “Use of n-alkanols as activators of the cftr channel” (priority 2003, published 2007).

The subject of one experiment is CHO cells. The experiment in a line: ATP-induced calcium response (cellular uncoupling) in CHO cells. It is filed as cell-based, Chinese hamster. Conditions: α-GA 10 to 100 μM, octan-1-ol 1 mM. How it is done: The Ca^2+ measurements are carried out in the presence of fura-2 (impermeant fluorescent probe) which binds […]. The cells are incubated in serum-free DMEM/F12 culture medium in the presence of the permeant form of fura-2 (fura-2/AM, 2.5 μM) for 1 h at 37° C. The cells, placed on the platform of an epifluorescent microscope (Olympus) (20× objective), are perfused with the solutions to be tested (e.g. ATP, octanol). They are sequentially illuminated at 340 nm and 380 nm and the fluorescence emitted (F) is measured at 510 nm. It is detected via a 12-bit CCD camera (Sony) connected to a data processing computer unit (TILL Photonics). The intracellular Ca^2+ concentration [Ca^2+]i is calculated using the Grynckiewicz equation (Grynckiewicz et al., 1985): [Ca^2+]i=Kdi *(R−Rmin/Rmax−R), based on the ratiometric analysis R (340/380 nm) of the fluorescence (TILL Vision); Rmax and Rmin denote the ratio of fluorescence measured in the presence or in the absence of Ca^2+.

Another experiment has as its target CFTR channel (Homo sapiens, UniProt P13569). The experiment in a line: 125I radioactive iodide efflux in CHO-CFTR(+) cells. Type of experiment: cell-based. Also on record: expressed in transfected cells; host or cells: CHO (Chinese hamster ovary) cells, CHO-CFTR(+). To be noted: CHO-CFTR(+) cells; n-alkanols 1 mM, FSK 1 μM, A23187 2 μM, α-GA 10 and 100 μM. How it is done: The cells are cultured in 24-well plates with a dilution to 1/10 after passage. […] The operation is repeated every 30 s for 2 to 6 min. […] All the samples are counted in a gamma counter (Kontron). The precipitated proteins are solubilized in 0.1N NaOH and quantified using a calorimetric test.
The tracer contained in the cell layer at the beginning of the efflux is calculated as the sum of the samples and of the extracts counted. The efflux curves are constructed by expressing the percentage of the content remaining in the cell layer (I %) with respect to time. The stimulated or nonstimulated efflux rate constants (k, min^−1) are determined by smoothing the efflux curves to a monoexponential function I %=100*exp(−kt) using a linear regression of the neperian logarithm of the data, k is used to calculate the iodide released into the medium with respect to time. The hypothesis is made that, in the presence of a stimulator, the efflux is the sum of two iodide effluxes occurring in parallel: a basal efflux and a stimulated efflux characterized, respectively, by the constants kb and ks. The total net efflux is then described by the equation It^%=100*(1−exp(−ktt)) where kt is the sum of kb and ks. Finally, ks calculated as kt−kb is used to establish a dose-response relationship for antagonists. The data is expressed as means ±SD, and the t-test is used to determine the significances. The concentration-response curves for agonists or for antagonists are smooth using the hyperbolic equation Y=Ymax*X/(EC5C+X), where Y is the response. Y begins at the basal level and progresses to the plateau (Ymax), X is the concentration and the half-effect values (EC are calculated using GraphPad Prism v3.0 (GraphPad software)).

Sequence of CFTR channel (P13569 whole entry): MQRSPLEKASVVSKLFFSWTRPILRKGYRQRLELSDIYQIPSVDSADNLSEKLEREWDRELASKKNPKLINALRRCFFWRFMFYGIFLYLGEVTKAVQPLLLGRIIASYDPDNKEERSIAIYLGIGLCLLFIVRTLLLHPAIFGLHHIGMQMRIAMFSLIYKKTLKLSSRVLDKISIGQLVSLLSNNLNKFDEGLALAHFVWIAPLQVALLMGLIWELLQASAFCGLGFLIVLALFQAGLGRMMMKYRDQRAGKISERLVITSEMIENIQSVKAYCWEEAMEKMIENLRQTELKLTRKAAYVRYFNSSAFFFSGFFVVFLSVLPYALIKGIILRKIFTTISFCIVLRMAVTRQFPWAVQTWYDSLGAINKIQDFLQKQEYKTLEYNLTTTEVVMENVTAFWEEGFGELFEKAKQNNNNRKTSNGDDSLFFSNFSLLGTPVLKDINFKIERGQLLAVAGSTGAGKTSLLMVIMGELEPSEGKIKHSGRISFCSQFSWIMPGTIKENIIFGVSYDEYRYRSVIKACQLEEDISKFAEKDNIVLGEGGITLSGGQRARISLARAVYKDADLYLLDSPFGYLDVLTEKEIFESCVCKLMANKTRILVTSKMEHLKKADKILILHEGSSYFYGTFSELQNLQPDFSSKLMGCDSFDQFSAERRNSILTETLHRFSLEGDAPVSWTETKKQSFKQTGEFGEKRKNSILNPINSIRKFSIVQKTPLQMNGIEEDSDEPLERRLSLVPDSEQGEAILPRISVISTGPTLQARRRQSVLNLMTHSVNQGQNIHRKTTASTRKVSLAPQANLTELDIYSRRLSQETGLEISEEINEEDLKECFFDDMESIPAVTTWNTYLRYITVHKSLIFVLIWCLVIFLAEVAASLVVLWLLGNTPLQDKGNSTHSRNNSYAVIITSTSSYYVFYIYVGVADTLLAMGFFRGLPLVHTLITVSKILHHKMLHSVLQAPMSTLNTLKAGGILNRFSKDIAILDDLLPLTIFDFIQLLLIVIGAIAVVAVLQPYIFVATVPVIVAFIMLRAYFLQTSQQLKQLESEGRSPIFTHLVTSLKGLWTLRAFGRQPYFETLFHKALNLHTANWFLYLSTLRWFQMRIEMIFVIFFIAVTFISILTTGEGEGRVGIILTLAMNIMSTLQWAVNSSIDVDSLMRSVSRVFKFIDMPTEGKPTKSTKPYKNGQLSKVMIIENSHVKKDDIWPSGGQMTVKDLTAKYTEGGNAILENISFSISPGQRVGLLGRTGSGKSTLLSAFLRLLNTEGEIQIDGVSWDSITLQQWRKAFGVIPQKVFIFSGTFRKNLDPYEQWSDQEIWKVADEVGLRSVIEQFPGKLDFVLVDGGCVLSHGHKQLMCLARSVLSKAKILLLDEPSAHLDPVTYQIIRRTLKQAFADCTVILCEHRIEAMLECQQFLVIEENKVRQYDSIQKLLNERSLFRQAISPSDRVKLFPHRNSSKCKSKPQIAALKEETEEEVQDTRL

For `CC1(C)[C@@H](O)CC[C@]2(C)[C@H]3C(=O)C=C4[C@H]5C[C@@](C)(C(=O)O)CC[C@]5(C)CC[C@@]4(C)[C@]3(C)CC[C@@H]12` [α-GA, 18-alpha glycerrhetinic acid, reference compound], the “cellular uncoupling shown by ATP-induced calcium response” value in the experiment on CHO cells is “clearly uncouples the cells”. For the same molecule, the “activation of CFTR (125I efflux), in words” value at CFTR channel is listed as “no effect”.
